Reference: patent publication US20110045032A1 (priority 2001, published 2011)

Key:
[1] = system: dust mite-sensitized rabbits; assay: Pulmonary function after allergen challenge, intratracheal powder (Example 25); type: in vivo
Description: (§1) This study defines the effect of 7 days of treatment with DHEA-S on allergen-induced bronchial hyperresponsiveness (BHR), early and late phase responses, and pulmonary inflammation in dust mite-sensitized rabbits. Baseline BHR and inflammation were first determined. The following week, allergen challenge, pulmonary function testing and BALF were performed on the untreated rabbits. Histamine sensitivity was determined 24 hours post allergen challenge. Rabbits were rested for 3 weeks then baseline values were re-established. The following week, DHEA-S (5 mg/day) was delivered once a day for 7 days via an intratracheal powder injector through the endrotracheal tube of the anesthetized rabbit. On day 8, 24 hrs after the last treatment, allergen challenge, pulmonary function testing and BALF were performed as previously. On day 9, 24 hrs after allergen challenge, a histamine challenge was performed. The drug was not micronized prior to use thus only a portion of the administered date was expected to reach the deep lung. The study includes 4 animals studied under a crossover design. The treatment with DHEA-S led to changes in the disease status of the animals that are described in the following paragraph.
Effects on airway obstruction were measured by changes in dynamic compliance and total lung resistance in response to allergen challenge. Rabbits were monitored for 6 hours following allergen challenge and the values plotted against time. Changes in dynamic compliance were determined by the % change in compliance as compared to the animal's initial saline value recorded prior to challenge. Changes in response to allergen and/or treatment were calculated using the area under the curve (AUC) where an AUC unit is defined as % change×hour. Treatment with DHEA-S attenuated the drop in airway compliance following allergen challenge by 86% as compared to allergen alone. Following allergen alone the total AUC was −146 units compared to −20 units for animals treated with DHEA-S. This difference in the total AUC for vehicle and DHEA-S treated animals was determined to be significant using Student's t-test for paired observations, p=0.036. Similarly, treatment with DHEA-S attenuated the increase in airway resistance following allergen challenge by 54% as compared to allergen alone. […] Variability during the late phase kept differences in AUC between the vehicle and drug treatment groups from being significant when analyzed using a paired t-test.

[2] = system: dust mite-sensitized rabbits; assay: BALF cell counts, intratracheal powder (Example 25); type: in vivo
Description: as §1

[3] = system: dust mite-sensitized rabbits; assay: Pulmonary function after allergen challenge, nebulized (Example 26); type: in vivo
Description: (§2) This study defines the effect of 7 days of treatment with DHEA-S on allergen-induced bronchial hyperresponsiveness (BHR), early and late phase responses, and pulmonary inflammation in dust mite-sensitized rabbits. Baseline BHR and inflammation were first determined. DHEA-S (5 mg/ml, 2 ml nebulized) or an equivalent volume of vehicle was delivered once per day via nebulization through a pediatric facemask covering the nose and mouth on days 1 through 7. On day 8, 24 hours after the last treatment, allergen challenge, pulmonary function testing and BALF were performed. On day 9, 24 hours after allergen challenge a histamine challenge was performed and the lungs removed for histology. The study includes 5 animals studied under a crossover design. There was a 3 week resting period between study arms and lungs were taken during the second treatment arm only. The treatment with DHEA-S led to the changes in the disease status of the animals described in the following paragraph.
Effects on airway obstruction were measured by changes in dynamic compliance and total lung resistance in response to allergen challenge. Rabbits were monitored for 6 hours following allergen challenge and the values plotted against time. Changes in dynamic compliance were determined by the % change in compliance as compared to the animal's initial saline value recorded prior to challenge. Changes in response to allergen and/or treatment were calculated using the AUC where an AUC unit is defined as % change×hour. Treatment with DHEA-S attenuated the drop in airway compliance following allergen challenge by 62% as compared to vehicle treatment. […] Variability during the early phase kept differences in AUC between the vehicle and drug treatment groups from being significant when analyzed using a paired t-test.

[4] = system: dust mite-sensitized rabbits; assay: BALF cell count, nebulized (Example 26); type: in vivo
Description: as §2

[5] = Serum and BAL DHEA and DHEA-S levels (Example 26); type: in vivo, rabbits; details: rabbit, serum, inhaled, 10 mg/day; twenty-four hours after the last of seven daily treatments; prior 4.7
Description: as §2

[6] = system: dust mite-sensitized rabbits; assay: Bronchial hyperresponsiveness to histamine (Example 27); type: in vivo
Description: (§3) This follow-up study compared the effects of DHEA-S and Puimicort® (budesonide inhalation suspension) on allergen-induced bronchial hyperresponsiveness (BHR) to histamine and pulmonary inflammation in dust mite-sensitized rabbits. The study included 18 animals divided into 3 treatment groups: saline, DHEA-S, and Puimicort. The animals were treated for once per day for 5 consecutive days via nebulization through a pediatric facemask covering the nose and mouth. Treatments were DHEA-S, 10 mg/day (5 mg/ml), Pulmicort Respules, 0.5 mg/day (0.5 mg/2 ml, note: this is the standard human dose) or saline (2 ml). A dust mite challenge was performed on day 4, and development of airway inflammation was assessed 6 hours and 30 hours after dust mite challenge. Histamine sensitivity was assessed 30 hours after challenge (day 5) and the lungs removed for histology.
There was an increase in the area under the curve of 17.42, which means the animals became more sensitive to histamine following allergen exposure. […] The resulting change in the area under the curve was −4.52 and −6.70 for DHEA-S and Puimicort, respectively, this means that animals treated with DHEA-S or Pulmicort were less sensitive to histamine following allergen exposure.

[7] = system: dust mite-sensitized rabbits; assay: Lung histology (Example 27); type: in vivo; details: compared to saline
Description: as §3
Analysis of lung sections indicated a moderate level of pulmonary inflammation in all groups. No differences in the level of monocyte phagocytic hyperplasia, airway and blood vessel cuffing by inflammatory cells, pneumonitis, pneumonia, bronchial associated lymphoidal tissue hyperplasia, septal edema, hemorrhage, alveolar edema, or bronchitis/bronchiolitis was observed, although monocyte phagocytic hyperplasia tended to be higher in the Pulmicort and DHEA-S groups, and bronchitis tended to be lower.

[8] = in the 6 hours after aerosol dust mite challenge
[9] = 6 hours after allergen-challenge, compared to vehicle control

With `CC12CCC3C(CC=C4CC(OS(=O)(=O)[O-])CCC43C)C1CCC2=O.[Na+]` (stereo not drawn) [DHEA-S, Dehydroepiandrosterone sulfate] the “attenuation of the drop in airway compliance following allergen challenge” value ([1]; 5 mg/day intratracheal powder, 7 days, compared to allergen alone) was 86%, the “total area under the curve for the change in resistance following allergen challenge” value ([1]; 6 hours, control 1069±243, not significant) was 495 and the “total area under the curve for the change in compliance following allergen challenge” value ([1]; AUC unit = % change×hour, 6 hours, control −146±29) was −20 units. The “attenuation of the increase in airway resistance following allergen challenge” value ([1]; compared to allergen alone) was 54%, the “reduction of airway resistance changes” value [1, 8] was “over 200%” and the “total area under the curve for the change in compliance following allergen challenge” value ([1]; inhaled or nasal, 6 h) was −20±23 units. The “24-hour histamine responsiveness following allergen challenge” value ([1]; rabbit, in vivo) was “downward shift”, the “neutrophils in BALF” value ([2]; 15 minutes after dust mite challenge, control 10.2) was 1.3 ×10^4 cells/ml and the “macrophages in BALF” value ([2]; 15 minutes after dust mite challenge, control 29.6) was 19.4 ×10^4 cells/ml. The “neutrophils in BALF” value ([2]; 6 hours after challenge, control 43.8) was 32.2 ×10^4 cells/ml, the “eosinophils in BALF” value ([2]; 24 hours after allergen challenge, control 3.2) was 2.0 ×10^4 cells/ml and the “macrophages in BALF” value ([2]; 24 hours after allergen challenge, control 24.1) was 17.8 ×10^4 cells/ml. The inhibition of eosinophils ([2]; at 24 hours) was “slight mean inhibition”, the “total AUC for airway resistance” value ([3]; 6 hours, control 315) was 377 and the PC50 histamine ([3]; 48 hours after the last administration, control 0.84) was 0.86 mg/mL. The “tolerance of pulmonary function testing and histamine challenges” value ([3]; 7 days of treatment via facemask, qualitative) was “better than vehicle-treated animals”, the “effect on airway resistance changes” value [3, 8] was “no significant effect” and the “attenuation of the drop in airway compliance following allergen challenge” value ([3]; nebulized 5 mg/ml, 2 ml once per day, 7 days, compared to vehicle treatment) was 62%. The “nasal congestion following histamine and dust mite challenges” value ([3]; rabbit, in vivo) was “no evidence of nasal congestion”, the “lower numbers of eosinophils in BALF” value [4, 9] was 52% and the “lower numbers of macrophages in BALF” value [4, 9] was 68%. The “lower numbers of neutrophils in BALF” value [4, 9] was 69%, the “effect on BALF cell numbers” value ([4]; 24 hours after dust mite challenge) was “not significant” and the “decrease of inflammatory cell migration into the BAL fluid” value ([4]; rabbit, in vivo) was 68%. The “eosinophils in BAL fluid” value ([4]; six hours after dust mite challenge, vehicle 8) was 4 ×10^4 eosinophils/ml, the “third cell count in BAL fluid (cell type not given)” value ([4]; six hours after dust mite challenge, vehicle 37) was 12 ×10^4 and the “neutrophils in BAL fluid” value ([4]; six hours after dust mite challenge, vehicle 94) was 29 ×10^4 neutrophils/ml. The concentration at 24 h after the last dose [5] was 49 ng/mL, the “change in the area under the histamine dose-response (resistance) curve” value [6] was −4.52 and the histamine response curve ([6]; 30 hours after challenge) was “tended to shift the histamine response curve downward”. The monocyte phagocytic hyperplasia ([7]; not significant) was “tended to increase”, the necrotizing bronchitis ([7]; not significant) was “tended to decrease” and the pavementing ([7]; statistically significant) was “decreased pavementing”.
